Data: patent publication US20060069132A1, “Azolecarboxamide herbicides” (priority 2004, published 2006)

How the values were obtained:
wheat = assay: Test B postemergence herbicide test; type: in vivo, Triticum aestivum; set-up: key to Wheat plant response rating: 0 = no effect, 100 = complete control; settings: scale 0 (no effect) to 100 (complete control)
Summary of the method: (§1)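 Greenhouse test; postemergence application to plants at 1–4 leaves (2–18 cm); paddy species at 2 leaves; evaluated visually vs controls at 13–15 days; scale 0–100 (100 = complete control).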

velvetleaf [1] = assay: Test B pre-/postemergence herbicide test; type: in vivo, Abutilon theophrasti
Summary of the method: (§2)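 Visual rating, 0 (no effect) to 100 (complete control), versus untreated controls after 13–15 d in greenhouse. Pre- and postemergence applications (postemergence plants 2–18 cm, 1–4 leaves); flooded paddy arm at 2-leaf stage. Compounds in non-phytotoxic solvent plus surfactant.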

barnyardgrass [2] = assay: Test B pre-/postemergence herbicide test; type: in vivo, Echinochloa crus-galli
Summary of the method: (§3)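 Greenhouse pot assay with simultaneous preemergence (treated seed) and postemergence (2–18 cm seedlings) applications of surfactant-containing, non-phytotoxic solvent formulations. Response scored visually 13–15 days later on a 0–100 scale, 100 meaning complete control.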

giant foxtail [3] = assay: Test B pre-/postemergence herbicide test; type: in vivo, Setaria faberi
Summary of the method: as §2

morningglory [4] = assay: Test B pre-/postemergence herbicide test; type: in vivo, Ipomoea coccinea
Summary of the method: as §3

giant foxtail [5] = assay: Test A pre-/postemergence herbicide test; type: in vivo, Setaria faberi
Summary of the method: (§4)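 Seeds sown in sandy loam received a preemergence directed soil spray of compound in non-phytotoxic solvent with surfactant; postemergence plants (2–10 cm, one- to two-leaf stage) were sprayed to runoff at the same time. After ~10 days in greenhouse, injury was rated visually versus untreated controls (0 = no effect, 100 = complete control).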

Surinam grass = assay: Test B pre-/postemergence herbicide test; type: in vivo, Urochloa decumbens
Summary of the method: as §2

barnyardgrass [6] = assay: Test B flooded paddy test; type: in vivo, Echinochloa crus-galli; settings: 1000 g ai/ha, visual rating, scale 0 to 100 (0 no effect, 100 complete control), 13 to 15 days
Summary of the method: as §1

large crabgrass [7] = assay: Test B pre-/postemergence herbicide test; type: in vivo, Digitaria sanguinalis
Summary of the method: as §2

ducksalad = assay: Test B flooded paddy test; type: in vivo, Heteranthera limosa; settings: 1000 g ai/ha, visual rating, scale 0 to 100 (0 no effect, 100 complete control), 13 to 15 days
Summary of the method: as §1

[8] = system: small flower umbrella sedge; assay: Test B flooded paddy test; type: in vivo, Cyperus difformis; settings: 1000 g ai/ha, visual rating, scale 0 to 100 (0 no effect, 100 complete control), 13 to 15 days
Summary of the method: as §1

wild oat = assay: Test B postemergence herbicide test; type: in vivo, Avena fatua; settings: scale 0 (no effect) to 100 (complete control)
Summary of the method: as §1

rice = assay: Test B flooded paddy test; type: in vivo, Oryza sativa; settings: 1000 g ai/ha, visual rating, scale 0 to 100 (0 no effect, 100 complete control), 13 to 15 days
Summary of the method: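 Read-out: visual comparison with controls, scored 0 to 100, where 100 means complete control and 0 no effect. Formulated chemicals were applied postemergence to plants 2–18 cm tall (1- to 4-leaf), or to flooded-paddy plants at the 2-leaf stage, then held 13 to 15 days under glass.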

velvetleaf [9] = assay: Test A pre-/postemergence herbicide test; type: in vivo, Abutilon theophrasti
Summary of the method: as §4

blackgrass = assay: Test B postemergence herbicide test; type: in vivo, Alopecurus myosuroides; settings: scale 0 (no effect) to 100 (complete control)
Summary of the method: as §1

barnyardgrass [10] = assay: Test A pre-/postemergence herbicide test; type: in vivo, Echinochloa crus-galli
Summary of the method: as §4

morningglory [11] = assay: Test A pre-/postemergence herbicide test; type: in vivo, Ipomoea spp.
Summary of the method: as §4

lambsquarters = assay: Test B pre-/postemergence herbicide test; type: in vivo, Chenopodium album
Summary of the method: as §2

cocklebur = assay: Test B pre-/postemergence herbicide test; type: in vivo, Xanthium strumarium
Summary of the method: as §3

pigweed = assay: Test B pre-/postemergence herbicide test; type: in vivo, Amaranthus retroflexus
Summary of the method: as §2

large crabgrass [12] = assay: Test A pre-/postemergence herbicide test; type: in vivo, Digitaria sanguinalis
Summary of the method: as §4

redroot pigweed = assay: Test A pre-/postemergence herbicide test; type: in vivo, Amaranthus retroflexus
Summary of the method: as §4

corn = assay: Test B pre-/postemergence herbicide test; type: in vivo, Zea mays
Summary of the method: as §2

[13] = Postemergence, 500 g ai/ha, visual rating after 13 to 15 days
[14] = postemergence, 125 g ai/ha, visual rating
[15] = 500 g ai/ha, visual rating 0-100, 0 no effect, 100 complete control, preemergence
[16] = Postemergence, 500 g ai/ha, visual rating after 13 to 15 days, scale 0 (no effect) to 100 (complete control)
[17] = postemergence, 125 g ai/ha, visual rating, scale 0 (no effect) to 100 (complete control)
[18] = preemergence, 125 g ai/ha, 0 to 100 scale, 0 is no effect, 100 is complete control
[19] = Postemergence, 500 g ai/ha, 0 to 100 scale, 0 no effect, 100 complete control
[20] = Postemergence, 2000 g ai/ha, 0 to 100 scale, 0 no effect, 100 complete control
[21] = Preemergence, 500 g ai/ha, visual rating, 0 to 100 scale (0 no effect, 100 complete control)
[22] = Preemergence, 2000 g ai/ha, visual rating, 0 to 100 scale (0 no effect, 100 complete control)

CC(=NO)c1cc(NC(=O)c2cc(C(C)(C)C)nn2C)ccc1F [Compound 109]
Plant response rating, Wheat (wheat; [13]): 20 | Wheat plant response rating (wheat; [14]): 10 | Plant response rating, Velvetleaf (velvetleaf [1]; [15]): 60 | Plant response rating, Velvetleaf (velvetleaf [1]; [16]): 20 | Velvetleaf plant response rating (velvetleaf [1]; [17]): 10 | Plant response rating, Velvetleaf (velvetleaf [1]; [18]): 20 | Plant response rating, Barnyardgrass (barnyardgrass [2]; [15]): 100 | Plant response rating, Barnyardgrass (barnyardgrass [2]; [16]): 20 | Barnyardgrass plant response rating (barnyardgrass [2]; [17]): 10 | Plant response rating, Barnyardgrass (barnyardgrass [2]; [18]): 80 | Plant response rating, Foxtail, Giant (giant foxtail [3]; [15]): 100 | Plant response rating, Foxtail, Giant (giant foxtail [3]; [16]): 20 | Foxtail, Giant plant response rating (giant foxtail [3]; [17]): 20 | Plant response rating, Foxtail, Giant (giant foxtail [3]; [18]): 70 | Plant response rating, Morningglory (morningglory [4]; [15]): 100 | Plant response rating, Morningglory (morningglory [4]; [16]): 10 | Morningglory plant response rating (morningglory [4]; [17]): 0 | Plant response rating, Morningglory (morningglory [4]; [18]): 10 | Foxtail, Giant plant response rating (giant foxtail [5]; [19]): 55 | Plant response rating, Foxtail, Giant (giant foxtail [5]; [20]): 90 | Foxtail, Giant plant response rating (giant foxtail [5]; [21]): 80 | Foxtail, Giant plant response rating (giant foxtail [5]; [22]): 90 | Plant response rating, Surinam Grass (Surinam grass; [15]): 80 | Plant response rating, Surinam Grass (Surinam grass; [16]): 20 | Surinam Grass plant response rating (Surinam grass; [17]): 10 | Plant response rating, Surinam Grass (Surinam grass; [18]): 60 | Barnyardgrass plant response rating (barnyardgrass [6]): 80 | Plant response rating, Crabgrass, Large (large crabgrass [7]; [15]): 100 | Plant response rating, Crabgrass, Large (large crabgrass [7]; [16]): 10 | Crabgrass, Large plant response rating (large crabgrass [7]; [17]): 10 | Plant response rating, Crabgrass, Large (large crabgrass [7]; [18]): 80 | Ducksalad plant response rating (ducksalad): 90 | Sedge, Umbrella plant response rating [8]: 60 | Plant response rating, Oat, Wild (wild oat; [13]): 30 | Oat, Wild plant response rating (wild oat; [14]): 20 | Rice plant response rating (rice): 70 | Velvetleaf plant response rating (velvetleaf [9]; [19]): 25 | Plant response rating, Velvetleaf (velvetleaf [9]; [20]): 45 | Velvetleaf plant response rating (velvetleaf [9]; [21]): 15 | Velvetleaf plant response rating (velvetleaf [9]; [22]): 25 | Plant response rating, Blackgrass (blackgrass; [13]): 20 | Blackgrass plant response rating (blackgrass; [14]): 0 | Barnyardgrass plant response rating (barnyardgrass [10]; [19]): 75 | Plant response rating, Barnyardgrass (barnyardgrass [10]; [20]): 90 | Barnyardgrass plant response rating (barnyardgrass [10]; [21]): 85 | Barnyardgrass plant response rating (barnyardgrass [10]; [22]): 90 | Morningglory plant response rating (morningglory [11]; [19]): 25 | Plant response rating, Morningglory (morningglory [11]; [20]): 40 | Morningglory plant response rating (morningglory [11]; [21]): 35 | Morningglory plant response rating (morningglory [11]; [22]): 45 | Plant response rating, Lambsquarters (lambsquarters; [15]): 90 | Plant response rating, Lambsquarters (lambsquarters; [16]): 20 | Lambsquarters plant response rating (lambsquarters; [17]): 10 | Plant response rating, Lambsquarters (lambsquarters; [18]): 20 | Plant response rating, Cocklebur (cocklebur; [15]): 20 | Plant response rating, Cocklebur (cocklebur; [16]): 70 | Cocklebur plant response rating (cocklebur; [17]): 30 | Plant response rating, Cocklebur (cocklebur; [18]): 0 | Plant response rating, Pigweed (pigweed; [15]): 100 | Plant response rating, Pigweed (pigweed; [16]): 70 | Pigweed plant response rating (pigweed; [17]): 20 | Plant response rating, Pigweed (pigweed; [18]): 30 | Crabgrass, Large plant response rating (large crabgrass [12]; [19]): 20 | Plant response rating, Crabgrass, Large (large crabgrass [12]; [20]): 55 | Crabgrass, Large plant response rating (large crabgrass [12]; [21]): 80 | Crabgrass, Large plant response rating (large crabgrass [12]; [22]): 95 | Pigweed plant response rating (redroot pigweed; [19]): 100 | Plant response rating, Pigweed (redroot pigweed; [20]): 100 | Pigweed plant response rating (redroot pigweed; [21]): 75 | Pigweed plant response rating (redroot pigweed; [22]): 100 | Plant response rating, Corn (corn; [15]): 10 | Plant response rating, Corn (corn; [16]): 20 | Corn plant response rating (corn; [17]): 10 | Plant response rating, Corn (corn; [18]): 0
